# Entries after “also recorded” stand apart in the source; their conditions may differ. Counter-ions that a name gives are not always drawn.
# Experiments:
# P2X3 [1] = settings: oral; cited from earlier work
# [2] = preclinical models; cited from earlier work
# [3] = local delivery; cited from earlier work
# P2X3 [4] = settings: disclosed in WO2020239951 A1; cited from earlier work
# [5] = Dissolution in Fasted State Simulated Gastric Fluid (FaSSGF), manual experiment, 37 °C; format: physicochemical; settings: for Solubility: 37 °C
# Protocol: The dissolution in Fasted State Simulated Gastric Fluid (FaSSGF) of mesylate salt Form 2 of the compound A of Example 2 and esylate salt Form 1 of Example 6 in comparison with the free base Form A and with other salts was tested by means of manual experiment. The medium for simulated oral fluids was FaSSGF obtained from Biorelevant.com Ltd. The experiments were conducted for 60 minutes at 37 °C.
# General preparation of salts: in a round-bottomed flask, 200 mg of compound A free base Form A according to Example 1 (0.52 mmol) were suspended in 5 ml of solvent and stirred at RT. Acetone was employed for bromide, ethanedisulfonate, malonate, sulfate, saccharinate, tosylate, orotate, besylate, hemisulfate, phosphate and tartrate salts; water was employed for chloride salt; ethyl formate was employed for maleate, oxalate, gentisicate, fumarate and mandelate salts; tetrahydrofuran was employed for camphorsulfonate and pamoate salts; isopropyl acetate was employed for 4-hydroxybenzoate and methanol for camphorate salt. The corresponding acid was added under stirring in equimolar amount (except for hemisulfate, added in 0.5 molar amount). After 1 hour the crystalline solid was isolated by filtration, washed with the corresponding solvent (2×1 ml) and dried under nitrogen for 2 hours.
# The quantification of the dissolved amount was done by LC/UV system at different checkpoints up to 60 minutes. The saturation solution concentration was around 25-30 mg/ml. […] In a second experiment, the quantification was repeated with saturation solution concentration 170 mg/ml for the mesylate salt Form 2 and 100 mg/ml for the esylate salt Form 1. The results are reported in tables 8A, 8B, 8C, 8D and FIG. 28.
# [6] = Comparative stability at 40 °C and 75% RH at open conditions (UPLC/UV and XRPD); format: physicochemical; settings: 40 °C/75% RH open
# Protocol: In a second experiment, approximately 100 mg of compound A mesylate salt Form 2 according to Example 2, free base Form A according to Example 1 and esylate salt Form 1 according to Example 6 were stored in three open amber glass vials covered with filter paper to simulate open conditions. The samples were stored in a stability chamber at 75% RH and 40 °C to compare their stability. At the time points 0, 28, 56, 84 days the corresponding samples were removed from the stability chambers. After conditioning at RT, the samples were analyzed by UPLC/UV and XRPD.
# [7] = Two-sector dissolution study (FaSSGF then FaSSIF), parachute effect; format: physicochemical; settings: third experiment
# Protocol: The dissolution behaviour of mesylate salt Form 2 of compound A was studied in a two-sector model in comparison with free base Form A to evaluate a possible “spring-parachute effect”.
# The parachute effect is observable in two-sector dissolution studies. A test compound is incubated with FaSSGF and its concentration is monitored over time. FaSSIF is then added to the solution whilst continuing the monitoring. The period of time in which the test compound remains in solution without or before precipitating refers to the supersaturation time and represents the parachute effect.
# The experiment was conducted using DISS Profiler 6 Channel Pion. The free base Form A and mesylate salt Form 2 of compound A were each incubated in 8 ml of FaSSGF (pH 1.6) for 20 minutes at the concentration of 350 mg/250 ml. 16 ml of FaSSIF concentrated 1.5× (pH 6.5) was added with an incubation time of 180 minutes. The resulting target pH should be approximately 5-6. The experiment was conducted at 37 °C. The entire dissolution profile was monitored until the end of the experiment to evaluate a possible parachute effect, its duration and to evaluate the maximum solubility reached after the addition of FaSSIF.
# A second experiment was conducted, with an additional step of adjusting the pH to 6.5 after FaSSIF addition. Both free base Form A and mesylate salt Form 2 of compound A were tested.
# A third experiment was conducted on esylate salt Form 1 of compound A, using the same protocol of the second experiment, with free base Form A and mesylate salt Form 2 of compound A as controls. The experiment was aimed at evaluating comparatively a possible parachute effect of the esylate salt and its duration. Precipitation of the free base was observed after roughly 20 minutes, while precipitation of the esylate salt and mesylate salt were observed after 30 and 40 minutes respectively.
# [8] = Dynamic vapour sorption (DVS), hygroscopicity; format: physicochemical; settings: between 20% and 80% RH
# Protocol: Moisture sorption/desorption data were collected on a TA Instruments Vapor Sorption Analyzer Q5000SA.
# First step: sorption data was collected in the range 40% to 90% relative humidity (RH).
# Second Step: desorption, sorption and desorption data were collected over a range of 0% to 90% RH at 10% RH intervals under a nitrogen purge. Samples were not dried prior to analysis. Equilibrium criteria used for analysis were less than 0.100% weight change in 20 minutes, with a maximum equilibration time of 1 hour if the weight criterion was not met. Data were not corrected for the initial moisture content of the samples. NaBr was used as humidity verification.
# Moisture sorption/desorption data were also collected on a ProUmid SnS 23 equipped with a 23 autosampler following Method 1.
# In the first step sorption data was collected in the range 0% to 90% RH. Samples were not dried prior to analysis.
# In the second Step desorption, sorption and desorption data were collected over a range of 0% to 90% (RH) at 10% RH intervals under a nitrogen purge. Data were not corrected for the initial moisture content of the samples.
# [9] = second experiment (saturation conc. 170 mg/ml mesylate, 100 mg/ml esylate), 0 min
# [10] = first experiment (saturation conc. around 25-30 mg/ml), 5 min
"Solubility [5, 9] [µg/mL]","Solubility ([5]; second experiment, 60 min) [µg/mL]","Solubility ([5]; second experiment, 15 min) [µg/mL]","Solubility ([5]; second experiment, 30 min) [µg/mL]",Compound,also measured
490,1060,–,–,COc1cc(-c2ccc(F)cn2)cc2c(N[C@H](C)c3noc(C)n3)ncnc12 [ethanedisulfonate],–
550,5890,4980,5760,COc1cc(-c2ccc(F)cn2)cc2c(N[C@H](C)c3noc(C)n3)ncnc12 [fumarate],"Solubility [5, 10]: 3290 µg/mL; Solubility ([5]; first experiment, 10 min): 3360 µg/mL; Solubility ([5]; first experiment, 20 min): 3350 µg/mL; Solubility ([5]; first experiment, 40 min): 3610 µg/mL; Solubility ([5]; first experiment, 60 min): 3580 µg/mL"
210,14320,15210,14850,COc1cc(-c2ccc(F)cn2)cc2c(N[C@H](C)c3noc(C)n3)ncnc12 [phosphate],–

# Continued, compound first:
Compound,"Solubility [5, 9] [µg/mL]","Solubility ([5]; second experiment, 60 min) [µg/mL]","Solubility ([5]; second experiment, 15 min) [µg/mL]","Solubility ([5]; second experiment, 30 min) [µg/mL]",also measured
COc1cc(C(C)C)c(Oc2cnc(N)nc2N)cc1S(N)(=O)=O [AF-219],–,–,–,–,Hypersensitivity of the cough reflex (P2X3 [1]): dramatically reduced
"Nc1ncnc2c1ncn2[C@@H]1O[C@H](COP(=O)(O)OP(=O)(O)OP(=O)(O)O)[C@@H](O)[C@H]1O [ATP, Adenosine 5-TriPhosphate]",–,–,–,–,Citric acid-evoked and histamine-evoked cough [2]: enhances citric acid-evoked and histamine-evoked cough; Cough and bronchospasm [3]: initiates cough and bronchospasm
"COc1cc(-c2ccc(F)cn2)cc2c(N[C@H](C)c3noc(C)n3)ncnc12 [Compound A, (R)-6-(5-fluoropyridin-2-yl)-8-methoxy-N-(1-(5-methyl-1,2,4-oxadiazol-3-yl)ethyl)quinazolin-4-amine]",–,–,–,–,P2X3 inhibition (P2X3 [4]): potent and selective P2X3 inhibitor
COc1cc(-c2ccc(F)cn2)cc2c(N[C@H](C)c3noc(C)n3)ncnc12 [besylate],1010,21840,–,–,–
COc1cc(-c2ccc(F)cn2)cc2c(N[C@H](C)c3noc(C)n3)ncnc12 [bromide],720,2880,2520,–,–
COc1cc(-c2ccc(F)cn2)cc2c(N[C@H](C)c3noc(C)n3)ncnc12 [camphorsulfonate],510,13450,10510,11840,–
COc1cc(-c2ccc(F)cn2)cc2c(N[C@H](C)c3noc(C)n3)ncnc12 [chloride],690,10870,8630,–,–
"COc1cc(-c2ccc(F)cn2)cc2c(N[C@H](C)c3noc(C)n3)ncnc12 [esylate salt Form 1, (R)-6-(5-fluoropyridin-2-yl)-8-methoxy-N-(1-(5-methyl-1,2,4-oxadiazol-3-yl)ethyl)quinazolin-4-amine]",–,–,–,–,"Stability ([6]; 84 days): surprisingly good stability during stressed storage; % area main peak (LC/UV) ([6]; 0 days): 99.9 % area; Duration of the parachute effect compared to free base Form A [7]: longer duration of the parachute effect; Time of precipitation ([7]; protocol of the second experiment): 30 min; Solubility ([5]; first experiment (saturation conc. around 25-30 mg/ml), 5 min, listed as esylate Form 1, 5 min): 24270 µg/mL; Solubility ([5]; first experiment, 10 min, listed as esylate Form 1, 10 min): 24740 µg/mL; Solubility ([5]; first experiment, 20 min, listed as esylate Form 1, 20 min): 24870 µg/mL; Solubility ([5]; first experiment, 40 min, listed as esylate Form 1, 40 min): 24760 µg/mL; Solubility ([5]; first experiment, 60 min): ≥ 25000 µg/mL; Solubility ([5]; first experiment, 60 min, listed as esylate Form 1, 60 min): 24590 µg/mL; Solubility ([5]; second experiment, 30 min, listed as esylate Form 1, 30 min): 61300 µg/mL; Solubility ([5]; second experiment, 60 min, listed as esylate Form 1, 60 min): 68460 µg/mL; Solubility compared to free base Form A ([5]; 60 minutes): consistently higher solubility than the free base Form A during the 60 minutes time; Dissolution ([5]; first experiment, saturation conc. around 25-30 mg/ml): completely dissolved"
COc1cc(-c2ccc(F)cn2)cc2c(N[C@H](C)c3noc(C)n3)ncnc12 [mandelate],1280,10990,10880,9300,–
"COc1cc(-c2ccc(F)cn2)cc2c(N[C@H](C)c3noc(C)n3)ncnc12 [mesylate salt Form 6, (R)-6-(5-fluoropyridin-2-yl)-8-methoxy-N-(1-(5-methyl-1,2,4-oxadiazol-3-yl)ethyl)quinazolin-4-amine]",–,–,–,–,Hygroscopicity [8]: No hygroscopicity was noted; also recorded: substantially no hygroscopicity; Total water uptake [8]: 0.3%
COc1cc(-c2ccc(F)cn2)cc2c(N[C@H](C)c3noc(C)n3)ncnc12 [oxalate],1730,13870,10710,11700,"Solubility [5, 10]: 90 µg/mL; Solubility ([5]; first experiment, 10 min): 90 µg/mL; Solubility ([5]; first experiment, 20 min): 80 µg/mL; Solubility ([5]; first experiment, 40 min): 90 µg/mL; Solubility ([5]; first experiment, 60 min): 90 µg/mL"
COc1cc(-c2ccc(F)cn2)cc2c(N[C@H](C)c3noc(C)n3)ncnc12 [pamoate],30,6520,4890,–,–
COc1cc(-c2ccc(F)cn2)cc2c(N[C@H](C)c3noc(C)n3)ncnc12 [saccharinate],430,830,800,870,"Solubility [5, 10]: 900 µg/mL; Solubility ([5]; first experiment, 10 min): 1030 µg/mL; Solubility ([5]; first experiment, 20 min): 1090 µg/mL; Solubility ([5]; first experiment, 40 min): 1080 µg/mL; Solubility ([5]; first experiment, 60 min): 1020 µg/mL"
COc1cc(-c2ccc(F)cn2)cc2c(N[C@H](C)c3noc(C)n3)ncnc12 [tosylate],610,4970,4670,4860,–
